# Test results taken from ChEMBL document CHEMBL4020821, “Targeting Acidic Mammalian chitinase Is Effective in Animal Model of Asthma” (J Med Chem, 2018).
# Assays:
# Chitotriosidase-1 [1] = target: T1, Chitotriosidase-1 (Homo sapiens, UniProt Q13231); test: Inhibition of human recombinant full length C-terminal His-tagged chitotriosidase expressed in CHO-K1 cells using 4-methylumbelliferyl-beta-D-N,N',N\"\"-triacetylchitotrioside as substrate after 60 mins by fluorescence assay; format: cell-based
# T1 sequence (Q13231 whole entry): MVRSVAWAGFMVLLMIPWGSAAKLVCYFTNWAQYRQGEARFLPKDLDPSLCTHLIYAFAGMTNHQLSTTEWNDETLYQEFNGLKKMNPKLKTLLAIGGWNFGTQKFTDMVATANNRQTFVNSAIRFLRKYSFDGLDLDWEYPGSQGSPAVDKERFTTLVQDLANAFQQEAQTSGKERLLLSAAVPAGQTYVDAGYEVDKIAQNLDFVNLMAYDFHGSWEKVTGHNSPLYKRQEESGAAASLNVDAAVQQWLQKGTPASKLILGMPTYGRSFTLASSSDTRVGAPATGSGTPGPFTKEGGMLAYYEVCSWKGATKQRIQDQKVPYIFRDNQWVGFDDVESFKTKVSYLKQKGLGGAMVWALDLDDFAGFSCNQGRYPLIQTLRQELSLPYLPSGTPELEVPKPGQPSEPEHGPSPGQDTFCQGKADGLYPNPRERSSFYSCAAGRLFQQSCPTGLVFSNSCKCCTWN
# Chitotriosidase-1 [2] = target: T2, Chitotriosidase-1 (Mus musculus, UniProt Q9D7Q1); test: Inhibition of mouse recombinant full length C-terminal His-tagged chitotriosidase expressed in CHO-K1 cells using 4-methylumbelliferyl-beta-D-N,N',N\"\"-triacetylchitotrioside as substrate after 60 mins by fluorescence assay; format: cell-based
# T2 sequence (Q9D7Q1 whole entry): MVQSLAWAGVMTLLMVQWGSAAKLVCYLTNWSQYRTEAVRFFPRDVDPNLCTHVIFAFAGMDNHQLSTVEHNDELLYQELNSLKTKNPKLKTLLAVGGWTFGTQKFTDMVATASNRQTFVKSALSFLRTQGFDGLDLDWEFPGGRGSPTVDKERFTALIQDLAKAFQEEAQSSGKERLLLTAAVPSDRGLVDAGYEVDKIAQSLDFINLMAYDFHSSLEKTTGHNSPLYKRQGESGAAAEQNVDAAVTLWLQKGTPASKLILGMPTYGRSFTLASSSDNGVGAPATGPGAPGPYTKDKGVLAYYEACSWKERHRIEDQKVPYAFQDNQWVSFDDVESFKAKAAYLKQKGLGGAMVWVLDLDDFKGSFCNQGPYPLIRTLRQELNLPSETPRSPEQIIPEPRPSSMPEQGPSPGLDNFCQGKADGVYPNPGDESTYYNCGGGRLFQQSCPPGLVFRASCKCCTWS
# [3] = target: T3, Acidic mammalian chitinase (Mus musculus, UniProt Q91XA9); test: Inhibition of mouse recombinant full length C-terminal His-tagged acidic mammalian chitinase expressed in CHO-K1 cells using 4-methylumbelliferyl-beta-D-N,N'-diacetylchitobioside hydrate as substrate after 60 mins by fluorescence assay
# T3 sequence (Q91XA9 whole entry): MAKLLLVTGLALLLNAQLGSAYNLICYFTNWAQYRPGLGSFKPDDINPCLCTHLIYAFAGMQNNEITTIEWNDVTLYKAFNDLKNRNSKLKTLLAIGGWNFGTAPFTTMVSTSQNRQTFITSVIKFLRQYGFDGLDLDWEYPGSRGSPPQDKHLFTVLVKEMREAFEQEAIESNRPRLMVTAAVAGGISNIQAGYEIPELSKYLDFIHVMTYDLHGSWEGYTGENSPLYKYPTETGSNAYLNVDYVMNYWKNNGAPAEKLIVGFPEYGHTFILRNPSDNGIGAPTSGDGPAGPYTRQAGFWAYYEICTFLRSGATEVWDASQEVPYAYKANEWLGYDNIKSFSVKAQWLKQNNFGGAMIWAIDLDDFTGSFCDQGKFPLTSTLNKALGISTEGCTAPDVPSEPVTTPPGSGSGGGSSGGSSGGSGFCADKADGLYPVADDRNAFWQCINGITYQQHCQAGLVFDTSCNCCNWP
# [4] = Clearance in BALB/c mouse at 3 mg/kg, iv by LC-MS/MS analysis; format: ADME, organism-based; conditions: in vivo
# [5] = Half life in BALB/c mouse at 3 mg/kg, iv by LC-MS/MS analysis; format: ADME, organism-based; conditions: in vivo
# [6] = Oral bioavailability in BALB/c mouse at 10 mg/kg by LC-MS/MS analysis; format: ADME, organism-based; conditions: in vivo
# [7] = AUC (0 to infinity) in BALB/c mouse at 3 mg/kg, iv by LC-MS/MS analysis; format: ADME, organism-based; parameters: dose 3 mg/kg, route intravenous, time infinity; conditions: in vivo
# [8] = Cmax in BALB/c mouse at 10 mg/kg, po by LC-MS/MS analysis; format: ADME, organism-based; parameters: dose 10 mg/kg, route oral; conditions: in vivo
# [9] = Tmax in BALB/c mouse at 10 mg/kg, po by LC-MS/MS analysis; format: ADME, organism-based; conditions: in vivo
# [10] = AUC (0 to infinity) in BALB/c mouse at 10 mg/kg, po by LC-MS/MS analysis; format: ADME, organism-based; parameters: dose 10 mg/kg, route oral, time infinity; conditions: in vivo
# [11] = Volume of distribution at steady state in BALB/c mouse at 3 mg/kg, iv by LC-MS/MS analysis; format: ADME, organism-based; conditions: in vivo, read-out: Vdss
# [12] = Stability in liver microsomes (unknown origin) assessed as compound remaining after 20 mins; format: ADME, microsome; conditions: read-out: Stability
# Chitotriosidase-1 [13] = target: T2, Chitotriosidase-1; test: Inhibition of mouse recombinant full length C-terminal His-tagged chitotriosidase expressed in CHO-K1 cells using 4-methylumbelliferyl-beta-D-N,N',N\"\"-triacetylchitotrioside as substrate after 60 mins by Lineweaver-Burk plot analysis; format: cell-based
# Salmonella typhimurium = test: Genotoxicity in Salmonella typhimurium by Ames test; format: toxicity; conditions: salmonella enterica subsp. enterica serovar typhimurium
# Chitotriosidase-1 [14] = target: T1, Chitotriosidase-1; test: Inhibition of human recombinant full length C-terminal His-tagged chitotriosidase expressed in CHO-K1 cells using 4-methylumbelliferyl-beta-D-N,N',N\"\"-triacetylchitotrioside as substrate after 60 mins by Lineweaver-Burk plot analysis; format: cell-based
# [15] = target: T3, Acidic mammalian chitinase; test: Inhibition of mouse recombinant full length C-terminal His-tagged acidic mammalian chitinase expressed in CHO-K1 cells using 4-methylumbelliferyl-beta-D-N,N'-diacetylchitobioside hydrate as substrate after 60 mins by Lineweaver-Burk plot analysis
IC50 (Chitotriosidase-1 [1]),IC50 (Chitotriosidase-1 [2]),SMILES,also measured
> 100000 nM,> 100000 nM,CN(CCc1ccccc1)C1CCN(c2nc(N)n[nH]2)CC1,
389 nM,7470 nM,CN(CCc1ccc(Cl)cc1)C1CCN(c2nc(N)n[nH]2)CC1,
4160 nM,> 100000 nM,CN(CCc1ccc(C(C)(C)C)cc1)C1CCN(c2nc(N)n[nH]2)CC1,
123 nM,1270 nM,CC(C)CN(CCc1ccc(Br)cc1)C1CCN(c2nc(N)n[nH]2)CC1,clearance [4]: 8.53 mL/min/kg; half-life [5]: 3.25 h; bioavailability [6]: 100%; AUC(0-inf) [7]: 5860 ng·h/mL; Cmax [8]: 6040 ng/mL; Tmax [9]: 0.5 h; AUC(0-inf) [10]: 27900 ng·h/mL; Vd [11]: 1.66 L/kg; remaining at 20 min [12]: 78.3%
1170 nM,6960 nM,CC(C)c1ccc(CCN(C)C2CCN(c3nc(N)n[nH]3)CC2)cc1,
385 nM,7080 nM,CCN(CCc1ccc(Cl)cc1)C1CCN(c2nc(N)n[nH]2)CC1,
945 nM,15600 nM,CC(C)N(CCc1ccc(Cl)cc1)C1CCN(c2nc(N)n[nH]2)CC1,
232 nM,2960 nM,CC(C)CN(CCc1ccc(Cl)cc1)C1CCN(c2nc(N)n[nH]2)CC1,clearance [4]: 9.06 mL/min/kg; Ki (Chitotriosidase-1 [13]): 3400 nM; half-life [5]: 2.97 h; bioavailability [6]: 52%; Activity (Salmonella typhimurium): Non-Toxic; AUC(0-inf) [7]: 5520 ng·h/mL; Cmax [8]: 1860 ng/mL; Tmax [9]: 0.25 h; AUC(0-inf) [10]: 9560 ng·h/mL; Vd [11]: 2.33 L/kg; IC50 [3]: 18.8 nM; Ki (Chitotriosidase-1 [14]): 312 nM; Ki [15]: 10.5 nM; remaining at 20 min [12]: 76.9%
163 nM,1510 nM,Nc1n[nH]c(N2CCC(N(CCc3ccc(Cl)cc3)Cc3ccccc3)CC2)n1,IC50 [3]: 11.2 nM
149 nM,2580 nM,Nc1n[nH]c(N2CCC(N(CCc3ccc(Cl)cc3)Cc3ccccc3Cl)CC2)n1,clearance [4]: 45 mL/min/kg; half-life [5]: 6.78 h; bioavailability [6]: 47%; AUC(0-inf) [7]: 1110 ng·h/mL; Cmax [8]: 618 ng/mL; Tmax [9]: 1 h; AUC(0-inf) [10]: 1750 ng·h/mL; Vd [11]: 3.03 L/kg; IC50 [3]: 9.7 nM; remaining at 20 min [12]: 21%
1520 nM,12600 nM,Cc1ccc(CCN(C)C2CCN(c3nc(N)n[nH]3)CC2)cc1,
123 nM,2030 nM,Nc1n[nH]c(N2CCC(N(CCc3ccc(Cl)cc3)CC3CCCCC3)CC2)n1,
175 nM,2700 nM,CN(CCc1ccc(Br)cc1)C1CCN(c2nc(N)n[nH]2)CC1,clearance [4]: 52.6 mL/min/kg; half-life [5]: 4.4 h; bioavailability [6]: 99%; AUC(0-inf) [7]: 950 ng·h/mL; Cmax [8]: 672 ng/mL; Tmax [9]: 2 h; AUC(0-inf) [10]: 3340 ng·h/mL; Vd [11]: 12.8 L/kg; remaining at 20 min [12]: 97.5%
765 nM,3070 nM,CN(CCc1ccc(C2CC2)cc1)C1CCN(c2nc(N)n[nH]2)CC1,
105 nM,2720 nM,CCN(CCc1ccc(Br)cc1)C1CCN(c2nc(N)n[nH]2)CC1,
,7120 nM,CCc1ccc(CCN(C)C2CCN(c3nc(N)n[nH]3)CC2)cc1,

# Further lines, the compound ahead of its results:
SMILES,IC50 (Chitotriosidase-1 [1]),IC50 (Chitotriosidase-1 [2]),also measured
Nc1n[nH]c(N2CCN(CCOc3ccc(Br)cc3)CC2)n1,6760 nM,19800 nM,IC50 [3]: 2100 nM
Nc1n[nH]c(N2CCC(NC(=O)Nc3ccc(Br)cc3)CC2)n1,> 100000 nM,> 100000 nM,
Nc1n[nH]c(N2CCC(NS(=O)(=O)Cc3ccc(Br)cc3)CC2)n1,> 100000 nM,> 100000 nM,clearance [4]: 11.5 mL/min/kg; half-life [5]: 11.1 h; bioavailability [6]: 57%; AUC(0-inf) [7]: 4340 ng·h/mL; Cmax [8]: 3250 ng/mL; Tmax [9]: 1 h; AUC(0-inf) [10]: 8210 ng·h/mL; Vd [11]: 1.16 L/kg; remaining at 20 min [12]: 100%
Nc1n[nH]c(N2CCC(C(=O)NCc3ccc(Br)cc3)CC2)n1,> 100000 nM,> 100000 nM,
CN(Cc1ccc(Br)cc1)CC1CCN(c2nc(N)n[nH]2)CC1,> 100000 nM,> 100000 nM,
CN(CCc1ccc(Cl)cc1Cl)C1CCN(c2nc(N)n[nH]2)CC1,2260 nM,47600 nM,
Nc1n[nH]c(N2CCC(N(CCc3ccc(Cl)cc3)Cc3cccc4ccccc34)CC2)n1,36 nM,573 nM,
Nc1n[nH]c(N2CCC(NC(=O)Cc3ccc(Br)cc3)CC2)n1,> 100000 nM,> 100000 nM,
CN(C1CCN(c2nc(N)n[nH]2)CC1)S(=O)(=O)Cc1ccc(Br)cc1,> 100000 nM,> 100000 nM,
Nc1n[nH]c(N2CCN(C(=O)COc3ccc(Br)cc3)CC2)n1,> 100000 nM,> 100000 nM,
Nc1n[nH]c(N2CCC(CNC(=O)c3ccc(Br)cc3)CC2)n1,23100 nM,> 100000 nM,
